ChEMBL document CHEMBL6177982, “Structural Optimization of Pyrazole Compounds as Hsp90 Regulators with Enhanced Antitumor Activity” (J Med Chem, 2025)
Calls of active or inactive are those of the source. The rule behind the calls is not given here.

How the values were obtained:
MCF7 = assay: Antiproliferative activity against human MCF7 cells assessed as inhibition of cell proliferation incubated for 72 hrs by MTT assay; assay type: functional, cell-based; conditions: MCF7, 72 h
[1] = Toxicity in female Balb/c nude mouse xenografted with human HCT-116 cells assessed as effect on spleen weight at 5 to 30 mg/kg, ip administered every two days for 14 days; assay type: organism-based; conditions: in vivo, 336 h, dose 5-30 mg/kg, time 14 day
[2] = AUC (0 to infinity) in male Sprague-Dawley rat at 5 mg/kg, ip by LC-MS/MS analysis; assay type: ADME, organism-based; conditions: in vivo
[3] = Metabolic stability in rat liver microsomes assessed as terminal elimination half-life at 1 uM preincubated for 5 mins followed by NADPH addition and measured up to 120 mins by LC-MS/MS analysis; assay type: ADME, Microsome; conditions: time < 125 min, read-out: LambdaZ (converted)
[4] = Permeability of compound at pH 7.4 incubated for 4 hrs by PAMPA based UV analysis; assay type: ADME; conditions: read-out: permeability
[5] = Tmax in male Sprague-Dawley rat at 5 mg/kg, ip by LC-MS/MS analysis; assay type: ADME, organism-based; conditions: in vivo
[6] = Toxicity in female Balb/c nude mouse xenografted with human HCT-116 cells assessed as pathological changes in kidney at 5 to 30 mg/kg, ip administered every two days for 14 days by H and E staining based analysis; assay type: organism-based; conditions: in vivo, 336 h, dose 5-30 mg/kg, time 14 day
[7] = Half-life in male Sprague-Dawley rat at 1 mg/kg, iv by LC-MS/MS analysis; assay type: ADME, organism-based; conditions: in vivo
[8] = Apparent volume of distribution in male Sprague-Dawley rat at 5 mg/kg, ip by LC-MS/MS analysis; assay type: ADME, organism-based; conditions: in vivo
[9] = Clearance in male Sprague-Dawley rat at 10 mg/kg, IG by LC-MS/MS analysis; assay type: ADME, organism-based; conditions: in vivo, po
HCT-116 [10] = assay: Antitumor activity against human HCT-116 cells xenografted in female Balb/c nude mouse assessed as inhibition of tumor growth at 5 to 30 mg/kg, ip administered every two days for 14 days; assay type: functional, organism-based; conditions: dose 5-30 mg/kg, time 14.0 day
HCT-116 [11] = assay: Inhibition of Myc-tagged HSP90 C598A mutant (unknown origin)/AKT(unknown origin) protein-protein interaction transfected in human HCT-116 cells at 1 to 5 uM incubated for 12 hrs by co-immunoprecipitation analysis; assay type: cell-based; conditions: dose 1-5 µM
HCT-116 [12] = assay: Inhibition of Myc-tagged HSP90 (unknown origin)/HSF1 (unknown origin) protein-protein interaction transfected in human HCT-116 cells at 1 to 5 uM incubated for 12 hrs by co-immunoprecipitation analysis; assay type: cell-based; conditions: dose 1-5 µM
[13] = target: Heat shock protein HSP 90-alpha (Homo sapiens, UniProt P07900); assay: Binding affinity to HSP90alpha (unknown origin) assessed as dissociation constant by ITC analysis
[14] = Metabolic stability in human liver microsomes assessed as parent compound remaining at 1 uM preincubated for 5 mins followed by NADPH addition and measured after 30 mins by LC-MS/MS analysis; assay type: ADME, Microsome; conditions: time 35 min, read-out: Stability
[15] = Toxicity in female Balb/c nude mouse xenografted with human HCT-116 cells assessed as pathological changes in spleen at 5 to 30 mg/kg, ip administered every two days for 14 days by H and E staining based analysis; assay type: organism-based; conditions: in vivo, 336 h, dose 5-30 mg/kg, time 14 day
CT26 = assay: Antiproliferative activity against mouse CT26 cells assessed as inhibition of cell proliferation incubated for 72 hrs by MTT assay; assay type: functional, cell-based; conditions: CT26, 72 h
HCT-116 [16] = assay: Antiproliferative activity against human HCT-116 cells assessed as inhibition of cell proliferation incubated for 72 hrs by MTT assay; assay type: functional, cell-based; conditions: HCT-116, 72 h
HT-29 = assay: Antiproliferative activity against human HT-29 cells assessed as inhibition of cell proliferation incubated for 72 hrs by MTT assay; assay type: functional, cell-based; conditions: HT-29, 72 h
[17] = Metabolic stability in human liver microsomes assessed as clearance at 1 uM preincubated for 5 mins followed by NADPH addition and measured up to 120 mins by LC-MS/MS analysis; assay type: ADME, Microsome; conditions: time < 125 min, read-out: CLH
[18] = Toxicity in female Balb/c nude mouse xenografted with human HCT-116 cells assessed as effect on lung weight at 5 to 30 mg/kg, ip administered every two days for 14 days; assay type: organism-based; conditions: in vivo, 336 h, dose 5-30 mg/kg, time 14 day
HCT-116 [19] = assay: Antiproliferative activity against human HCT-116 cells assessed as inhibition of cell proliferation incubated for 48 hrs by MTT assay; assay type: functional, cell-based; conditions: HCT-116, 48 h
[20] = AUC (0 to infinity) in male Sprague-Dawley rat at 1 mg/kg, iv by LC-MS/MS analysis; assay type: ADME, organism-based; conditions: in vivo
HCT-116 [21] = assay: Inhibition of Myc-tagged HSP90 C598A mutant (unknown origin)/HSF1 (unknown origin) protein-protein interaction transfected in human HCT-116 cells at 1 to 5 uM incubated for 12 hrs by co-immunoprecipitation analysis; assay type: cell-based; conditions: dose 1-5 µM
[22] = Selectivity ratio of IC50 for antiproliferative activity against CDC37 knockout human HCT-116 cells to IC50 for antiproliferative activity against human HCT-116 cells; assay type: functional
[23] = target: Heat shock protein HSP 90-beta/Hsp90 co-chaperone Cdc37 (Homo sapiens) (UniProt P08238+Q16543); assay: Inhibition of His-tagged HSP90(unknown origin)/GST-tagged CDC37 (unknown origin) protein-protein interaction at 100 uM preincubated with HSP90 for 1 hrs followed by CDC37 addition and measured after 1 hrs by HTRF assay relative to control; assay type: protein-complex assay
[24] = Half-life in male Sprague-Dawley rat at 5 mg/kg, ip by LC-MS/MS analysis; assay type: ADME, organism-based; conditions: in vivo
[25] = Bioavailability in male Sprague-Dawley rat at 10 mg/kg, IG by LC-MS/MS analysis; assay type: ADME, organism-based; conditions: in vivo, po
HCT-116 [26] = assay: Inhibition of Myc-tagged HSP90 (unknown origin)/AKT(unknown origin) protein-protein interaction transfected in human HCT-116 cells at 1 to 5 uM incubated for 12 hrs by co-immunoprecipitation analysis; assay type: cell-based; conditions: dose 1-5 µM
HCT-116 [27] = assay: Antiproliferative activity against CDC37 knockout human HCT-116 cells assessed as inhibition of cell proliferation incubated for 72 hrs by MTT assay; assay type: functional, cell-based; conditions: HCT-116, 72 h
[28] = Toxicity in female Balb/c nude mouse xenografted with human HCT-116 cells assessed as pathological changes in liver at 5 to 30 mg/kg, ip administered every two days for 14 days by H and E staining based analysis; assay type: organism-based; conditions: in vivo, 336 h, dose 5-30 mg/kg, time 14 day
HCT-116 [29] = assay: Induction of CDK4 degradation in human HCT-116 cells incubated for 24 hrs by Western blot analysis; assay type: cell-based; conditions: dose 0.1-5 µM
Mus musculus = assay: Upregulation of HSP90 protein level in female Balb/c mouse tumor xenografted with human HCT-116 cells at 5 to 30 mg/kg, ip administered every two days for 14 days by Western blot analysis; assay type: functional, organism-based; conditions: dose 5-30 mg/kg, time 14.0 day
[30] = Metabolic stability in rat liver microsomes assessed as clearance at 1 uM preincubated for 5 mins followed by NADPH addition and measured up to 120 mins by LC-MS/MS analysis; assay type: ADME, Microsome; conditions: time < 125 min, read-out: CLH
[31] = Toxicity in female Balb/c nude mouse xenografted with human HCT-116 cells assessed as effect on liver weight at 5 to 30 mg/kg, ip administered every two days for 14 days; assay type: organism-based; conditions: in vivo, 336 h, dose 5-30 mg/kg, time 14 day
[32] = Toxicity in female Balb/c nude mouse xenografted with human HCT-116 cells assessed as effect on body weight at 5 to 30 mg/kg, ip administered every two days for 14 days; assay type: organism-based; conditions: in vivo, 336 h, dose 5-30 mg/kg, time 14 day

Structure (SMILES): O=S(=O)(/C=C/c1cn(-c2ccccc2)nc1-c1cccnc1)c1ccccc1
- IC50 (MCF7): 2340 nM
- Activity [1]: Non-toxic
- AUC(0-inf) [2]: 6770 ng·h/mL
- half-life at 1 µM [3]: 25.2 min
- Papp at 4 h [4]: 42.6 ×10⁻⁶ cm/s
- Tmax [5]: 8.4 min
- Activity [6]: Non-toxic
- half-life [7]: 50.4 min
- Vz [8]: 0.97 L/kg
- CL/F [9]: 18 mL/min/kg
- Activity (HCT-116 [10]): Active
- inhibition (HCT-116 [11]): inactive
- inhibition (HCT-116 [12]): inactive
- Kd [13]: 3960 nM
- remaining at 0.5 h, 1 µM [14]: 64%
- Activity [15]: Non-toxic
- IC50 (CT26): 1970 nM
- IC50 (HCT-116 [16]): 1080 nM
- IC50 (HT-29): 2020 nM
- microsomal CLint at 1 µM [17]: 26 µL/min/mg
- Activity [18]: Non-toxic
- IC50 (HCT-116 [19]): 4180 nM
- AUC(0-inf) [20]: 1460 ng·h/mL
- inhibition (HCT-116 [21]): inactive
- Ratio IC50 [22]: >50
- inhibition [23]: 92.9%
- half-life [24]: 82.2 min
- bioavailability [25]: 67.2%
- inhibition (HCT-116 [26]): Active
- IC50 (HCT-116 [27]): > 50000 nM
- Activity [28]: Non-toxic
- Activity (HCT-116 [29]): Dose-dependent-effect
- Activity (Mus musculus): inactive
- microsomal CLint at 1 µM [30]: 55 µL/min/mg
- Activity [31]: Non-toxic
- Activity [32]: Non-toxic
